Results taken from patent publication US20250368639A1, “SOLID FORMS OF A COMPOUND FOR TREATING OR PREVENTING HYPERURICEMIA OR GOUT” (ATOM THERAPEUTICS CO., LTD, priority 2022, published 2025).
≈ marks a conversion by molar mass, not a printed value. Like-named read-outs stand apart in the source and are kept apart here.

What was measured:
[1] = Suspensions for animal formulation in 0.5% CMC-Na (XRPD); type: physicochemical; details: about 30 mg in 30 ml, sonication
Method: About 30 mg of Form 1, Form 2, and Form 5D were each added into a respective 40 ml glass bottle and mixed with 30 ml of 0.5% CMC-Na solution. The solids were dispersed uniformly in the solution with the aid of sonication. After that, the solids were isolated by centrifugation, dried at room temperature, and the dry solid analyzed with XRPD.

[2] = Dynamic vapor sorption/desorption (DVS); type: physicochemical; details: 25° C., 85% RH
Method: Moisture sorption/desorption data were collected on a SMS DVS intrinsic Vapor Sorption Analyzer under a nitrogen purge. The DVS experiment generally includes a moisture sorption step and a moisture desorption step. […] In other words, the sample is considered to have reached an equilibrium between moisture sorption and desorption under the relative humidity when dm/dt≤0.01%. The sample was maintained at the temperature of 25° C. with relative humidity varied from 0% to 95%, and back to 0% at an increment of 5% RH each step.

[3] = Single-dose pharmacokinetic study, oral and intravenous, in SD rats; type: in vivo, SD rat; details: for AUC(0-inf): read-out: AUCINF—pred; for half-life: read-out: HL_Lambda_z (T1/2) (converted); for Vd/F: read-out: Vz—F—pred;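 for AUClast: AUClast in h·ng/mL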
Method: Form 1, Form 2, and Form 5D were each evaluated via a single-dose pharmacokinetic study following oral and intravenous administration in SD rats. […] Form 1, Form 2, and Form 5Dwere evaluated by rat pharmacokinetics study.
Male SD rat was purchased from Shanghai Sippr B&K Laboratory Animals Co., Ltd. The weight was 180 g˜200 g.
20% HP-β-CD was prepared from dissolving20 g of HP-β-CD (from Sigma) in 100 mL purified water. 0.5% CMC-Na was prepared from dissolving 1 g of CMC-Na (from Aladdin) in 200 mL purified water. The solutions were stored at 2-8 degree.
(§1) Group 1:4.95 mg (equivalent to 4.50 mg of anhydrous free base) of Form 1 was weighed out into a 20 ml bottle, and totally dissolved by 0.225 mL DMSO by sonication. After that, 4.275 mL of 20% HP-β-CD was added, mixed well by sonication. Finally, the pH value was adjusted to 7.0 by sodium hydroxide solution. The clear solution was obtained, and the concentration was 1 mg/mL.
Group 2:10.08 mg (equivalent to 9.164 mg of anhydrous free base) of Form 1 was weighed out into a 20 ml bottle, and then 9.164 mL of 0.5% CMC-Na was added. A white suspension was formed after sonicated by ultrasonic cell disruptor, and the concentration was 1 mg/mL.
Group 3:9.47 mg of Form 2 was weighed out into a 20 ml bottle, and then 9.470 mL of 0.5% CMC-Na was added. After sonicated, it was mixed well by homogenizer for 2 minutes. Finally, a white suspension was formed, and the concentration was 1 mg/mL.
Group 4:9.80 mg (equivalent to 8.909 mg of free base) of Form 5Dwas weighed out into a 20 mL bottle, and then 8.909 mL of 0.5% CMC-Na was added. After sonicated, it was mixed well by homogenizer for 2 minutes. Finally, a white suspension was formed, and the concentration was 1 mg/mL.
as §1, with “Group 5:1.94” for “Group 1:4.95”, “to 1.763” for “to 4.50”, “by 0.088” for “by 0.225”, “that, 1.675” for “that, 4.275”, “was 0.2” for “was 1”
The dose of intravenous administration was 1 mg/kg and 5 mg/kg, respectively. The oral dose was 10 mg/kg. Animals were fasted overnight before drug administration. After the drug administration, the rats were fed at the 4 hours.
About 150˜200 μL of blood was collected at the initial time (only intravenous), and at 0.25, 0.5, 1, 2, 4, 6, 8 and 24 h by jugular venipuncture blooding method. EDTA-K2 was selected as anticoagulant. Blood samples were centrifuged within one hour at 6000 rpm for 8 minutes (placed on wet ice before centrifugation). The supernatant was stored at −20° C. for LC-MS/MS analysis.
The computer program Microsoft Office Excel 2007 (Microsoft, USA) was used to process data and graphics. The pharmacokinetic parameters were calculated by WinNolin 6.4 software.

[4] = Slurry stability in purified water (XRPD); type: physicochemical; details: stirred overnight at room temperature
Method: About 30 mg of Form land Form 5D, Form 6, and Form 8 were mixed with about 2.5 ml of purified water, and the mixtures were stirred for overnight at room temperature. The wet solids were isolated by centrifugation, and further dried in vacuum for 2.5 hours before being analyzed with XRPD.

[5] = Solubility in water, buffers and bio-relevant media (37° C., 24 h shaking, HPLC); type: physicochemical; details: for Solubility: 37° C., 24 h
Method: The solubility of Form 1, Form 2, Form 5D, Form 6, Form 8, and Form 11 was analyzed in water, 0.1NaqueousHCl, pH4.5 acetate buffer solution, pH6.8 phosphate buffer solution, simulated gastric fluid (SGF), Fasted State Simulated Intestinal Fluid (FaSSIF), and Fed State Simulated Intestinal Fluid (FeSSIF).
About 5 mg or 10 mg of sample was weighed out into each vial and mixed with about 5 ml of medium to form a solution. The target concentration for the potassium salt in water was 2 mg/ml; and the target concentration for all other forms were 1 mg/mL. All samples were kept shaking at 200 rounds per minute (rpm) under 37° C. for 24 hours. The pH value of these samples were determined after shaking for 24 hours. Subsequently, they were centrifuged at the speed of 12000 rpm for 2 mins. The supernatant was diluted with methanol as necessary, and the concentrations were determined by HPLC. When the solubility of potassium salt was tested in water, the supernatant was diluted 100 times, while no other samples were diluted. The HPLC analysis utilizes Agilent Eclipse XDB-C8 4.6*150 mm, 5 μm column at 40° C., a mobile phase of 0.1% TFA: ACN=70:30, an injection volume of 10 μl, a flow rate of 1.0 ml/min, a diluent of methanol, and a detection wavelength of 234 nm.

[6] = rat, in vivo
[7] = biological target: T1, URAT1 (Homo sapiens, UniProt Q96S37); assay: Inhibitory effect on URAT1; details: in comparison with other treatments
T1 sequence (Q96S37 1-553): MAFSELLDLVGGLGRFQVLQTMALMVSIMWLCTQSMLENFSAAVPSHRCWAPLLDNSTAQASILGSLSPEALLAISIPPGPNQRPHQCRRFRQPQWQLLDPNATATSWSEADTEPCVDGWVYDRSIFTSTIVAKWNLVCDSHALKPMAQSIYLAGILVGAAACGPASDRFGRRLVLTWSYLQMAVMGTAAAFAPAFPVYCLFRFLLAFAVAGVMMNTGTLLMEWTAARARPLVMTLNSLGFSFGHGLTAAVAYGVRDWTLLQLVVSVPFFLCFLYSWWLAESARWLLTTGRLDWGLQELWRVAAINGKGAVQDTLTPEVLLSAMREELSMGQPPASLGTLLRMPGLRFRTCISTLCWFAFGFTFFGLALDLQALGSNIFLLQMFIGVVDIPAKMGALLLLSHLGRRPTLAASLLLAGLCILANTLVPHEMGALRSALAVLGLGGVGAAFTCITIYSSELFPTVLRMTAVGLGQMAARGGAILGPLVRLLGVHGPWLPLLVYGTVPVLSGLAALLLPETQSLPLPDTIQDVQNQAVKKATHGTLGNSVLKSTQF

[8] = test system: normal liver cells; assay: Toxicity to normal liver cells; type: cell-based; details: in comparison with other treatments
[9] = Uric acid excretion in mice; type: in vivo; details: in comparison with other treatments
[10] = male SD rats, oral 10 mg/kg, Average (Table 11)
[11] = male, SD, rat, plasma, po, 10 mg/kg, male SD rats, oral 10 mg/kg, Average (Table 11)
[12] = male, SD, rat, plasma, po, 10 mg/kg, male SD rats, oral 10 mg/kg, individual rats 401/402/403 (c1/c2/c3)

Compound: CCc1nc2ccccn2c1C(=O)c1cc(Br)c(O)c(C#N)c1 [Form 5D, 3-bromo-5-[(2-ethylimidazo[1,2-a]pyridin-3-yl)carbonyl]-2-hydroxybenzonitrile]
- Crystal form after dispersion in 0.5% CMC-Na solution (XRPD) [1]: did not change
- DVS (85% RH) [2]: 2.14%
- Exposure and bioavailability (words, comparison) ([3]; SD rats, oral administration 10 mg/kg, 10 mg/kg): approximately the same as results from third parties
- AUClast [3, 10]: 91914.8 ng·h/mL
- Cl—F—pred [3, 10]: 1.83 mL/min/kg
- F ([3]; male SD rats, oral 10 mg/kg, calculated by intravenous administration of 1 mg/kg, Average (Table 11)): 52.96%
- Cmax [3, 11]: 8980 ng/mL
- MRT last [3, 11]: 5.95 h
- Tmax [3, 11]: 3.33 h
- AUC(0-inf) [3, 11]: 92700 ng·h/mL
- half-life [3, 11]: 3.4 h
- Vd/F [3, 11]: 0.53 L/kg
- AUC(0-t) [3, 12]: 84700 ng·h/mL
- Cmax [3, 12]: 8540 ng/mL
- MRT last [3, 12]: 6.11 h
- Tmax [3, 12]: 4 h
- AUC(0-inf) [3, 12]: 96600 ng·h/mL
- half-life [3, 12]: 3.55 h
- Vd/F [3, 12]: 0.53 L/kg
- Crystal form after slurry in purified water (XRPD) [4]: transformed into Form 1
- Solubility ([5]; 0.1N HCl): 8.3 µg/mL (≈ 22.4 µM)
- Solubility ([5]; FaSSIF): 55.8 µg/mL (≈ 151 µM)
- Solubility ([5]; FeSSIF): 5.4 µg/mL (≈ 14.6 µM)
- Solubility ([5]; SGF): 7.4 µg/mL (≈ 20 µM)
- Solubility ([5]; Water): 0.8 µg/mL (≈ 2.16 µM)
- Solubility ([5]; pH 4.5 acetate buffer): 1.3 µg/mL (≈ 3.51 µM)
- Solubility ([5]; pH 6.8 phosphate buffer): 47.7 µg/mL (≈ 129 µM)
- Appearance / solubility in water ([5]; water, shaken about 24 hours, compared with Form 1): reduced solubility in water

Compound: CCc1nc2ccccn2c1C(=O)c1cc(Br)c(O)c(C#N)c1 [Compound I, 3-bromo-5-[(2-ethylimidazo[1,2-a]pyridin-3-yl)carbonyl]-2-hydroxybenzonitrile]
- Toxicity (oral maximum tolerated dose, acute toxicity test) [6]: much lower than other treatments
- Inhibitory effect on URAT1 [7]: significantly improve the inhibitory effect on URAT1
- Toxicity to normal liver cells [8]: reduce the toxicity to normal liver cells
- Uric acid excretion [9]: significantly increase uric acid excretion in mice
